Experimental data from the NIST ThermoML archive (doi:10.1016/j.jct.2011.10.012).
Where “and” joins values, the source holds several entries; their conditions need not be identical. Identical values can stand only once.

Settings: for viscosity: 101.33 kPa, Cone and plate viscometry; for viscosity / mass density: Liquid; for mass density: Vibrating tube method; for surface tension liquid-gas: Wilhelmy plate

CCCCCCCCCCCCCC[P+](CCCCCC)(CCCCCC)CCCCCC.FC(F)(F)C(F)(F)[P-](F)(F)(F)(C(F)(F)C(F)(F)F)C(F)(F)C(F)(F)F
Settings	surface tension liquid-gas [mN/m]	viscosity
283.09 K	–	975.8 mPa·s and 976.8 mPa·s
283.1 K	–	991.3 mPa·s and 992.8 mPa·s and 989.8 mPa·s
288.13 K	–	697.9 mPa·s [middle of 4 runs]
293.07 K	–	504.6 mPa·s [middle of 5 runs]
298.15 K	–	335.9 mPa·s and 336.5 mPa·s
298.51 K	28.99	–
303.15 K	–	256.1 mPa·s [middle of 5 runs]
305.16 K	28.68	–
308.15 K	–	196 mPa·s [middle of 6 runs]
309.15 K	28.44	–
313.15 K	–	151.2 mPa·s [middle of 8 runs]
313.65 K	28.14	–
318.15 K	–	118.8 mPa·s [middle of 8 runs]
319.7 K	27.8	–
323.15 K	–	96.4 mPa·s [middle of 15 runs]
325.35 K	27.58	–
328.15 K	–	79.6 mPa·s [middle of 11 runs]
330.62 K	27.28	–
333.15 K	–	65 mPa·s [middle of 13 runs]
337.9 K	26.85	–
338.15 K	–	54 mPa·s [middle of 13 runs]
343.15 K	–	44.3 mPa·s [middle of 9 runs]
343.29 K	26.57	–
348.15 K	–	37.5 mPa·s [middle of 9 runs]
353.15 K	–	32.1 mPa·s [middle of 8 runs]
358.15 K	–	27.9 mPa·s and 28 mPa·s and 28.1 mPa·s
358.17 K	–	28.2 mPa·s and 28.1 mPa·s and 28 mPa·s
363.17 K	–	24.5 mPa·s and 24.4 mPa·s
363.18 K	–	24.6 mPa·s and 24.5 mPa·s
363.2 K	–	24.6 mPa·s and 24.5 mPa·s

mass density [kg/m3]
Settings	100 kPa	2000 kPa	3000 kPa	5000 kPa	10000 kPa	15000 kPa	20000 kPa	25000 kPa
293.15 K	1185.6	1187	1187.7	1189.2	1192.6	1196.1	1199.4	1202.6
298.15 K	1181.8	1183.2	1183.9	1185.4	1189	1192.5	1195.8	1199.1
303.15 K	1177.9	1179.4	1180.1	1181.6	1185.3	1188.9	1192.3	1195.6
308.15 K	1174	1175.5	1176.3	1177.8	1181.5	1185.2	1188.7	1192.1
313.15 K	1170.1	1171.6	1172.4	1174	1177.8	1181.5	1185.1	1188.6
318.15 K	1166.2	1167.7	1168.5	1170.2	1174.1	1177.8	1181.5	1185
323.15 K	1162.3	1163.8	1164.6	1166.3	1170.3	1174.1	1177.8	1181.4
328.15 K	1158.3	1159.9	1160.7	1162.4	1166.5	1170.4	1174.2	1177.8
333.15 K	1154.4	1155.9	1156.8	1158.5	1162.7	1166.7	1170.5	1174.2
338.15 K	1150.4	1152	1152.9	1154.6	1158.9	1162.9	1166.8	1170.5
343.15 K	1146.4	1148	1148.9	1150.7	1155	1159.1	1163.1	1166.9
